Source: patent US6369058B1 (New Millennium Pharmaceutical Research Inc., priority 1999, dated 2002)

Key:
[1] = Absorption of folic acid from the nasal cavity of rats (in vivo technique, spectrophotometric assay of nasal washings); settings: rat, intranasal 0.1 ml of folic acid solution (50 mg/10 ml, pH 8.3), nasal cavity washed with 3 ml water
Method: Rats were fasted overnight prior to experimentation. Surgical procedures were performed under equithesin anesthesia (3 ml/kg, i.p.). An incision was made in the neck of each rat, and the trachea cannulated with polyethylene tubing (PF-260). A closed end tube was inserted through the esophagus to the posterior part of the nasal cavity to prevent drug from entering the esophagus. The nasopalatine passage was closed with an adhesive agent to prevent drainage of the drug from the nasal cavity to the mouth.
The solution was filtered. The final pH was 8.3.
The washings were placed in a spectrophotometer cell and the absorbance was measured.

[2] = in vivo; cited from earlier work

Concentration of folic acid in the nasal cavity ([1]; time 0 min) | Concentration of folic acid in the nasal cavity ([1]; time 2 min) | Concentration of folic acid in the nasal cavity ([1]; time 5 min) | Concentration of folic acid in the nasal cavity ([1]; time 15 min) | SMILES | Patients with abdominal cramping, nausea, vomiting, and diarrhea [2] | Patients with elevation of serum transaminases (hepatotoxicity) [2]
4.1 mg % | 3.8 mg % | 2.9 mg % | 2.6 mg % | Nc1nc(=O)c2nc(CNc3ccc(C(=O)NC(CCC(=O)O)C(=O)O)cc3)cnc2[nH]1 [folic acid, N-[4-[[(2-Amino-1,4-dihydro-4-oxo-6-pteridinyl)methly]amino]benzoyl]-L-glutamic acid] | – | –
– | – | – | – | Nc1c2c(nc3ccccc13)CCCC2 [tacrine, 1,2,3,4-tetrahydro-9-aminoacridine] | up to one-third | up to 20 % of patients
